Measurements taken from patent US20250034159A1, “INHIBITORS OF EPIDERMAL GROWTH FACTOR RECEPTOR” (ORIC Pharmaceuticals, Inc., priority 2021, published 2025).

Key:
BaF3_EGFR LR/CS cells = test: Biological Activity Assay D: BaF3 cell proliferation assay, EGFR L858R/C797S mutant (BaF3 LR/CS); type: cell-based; conditions: Ba/F3 EGFR; BaF3_EGFR LR/CS cells, ~72 hours, CellTiter-Glo; read-out: BaF3 LR/CS IC50
Method: (§1) One frozen vial of cells should be thawed into one T25 flask in 10 mL media. Keep the flask upright in the incubator.
(§2) Method: One frozen vial of cells was thawed into one T25 flask in 10 mL media and the flask was kept upright in the incubator. Cells were split 1:10 every two to three days when cells reached confluency of around 1×10^6 cells/mL. Bravo protocol files were used with Greiner 384-well plates for all steps of compound preparation, cell plating and compound addition. […] 16 μL of DMSO were added (for compounds starting at 20 μM) or 28 μL DMSO (for compounds starting at 5 μM) to 96-well V-bottom polypropylene plate: wells 1A-1H (8 compounds/plate). […] 20 μL DMSO were added to the remainder of the wells (columns 2-12) in the 96-well V-bottom plate. A Bravo liquid handler was used to make 1:3 serial dilutions from columns 1 to 11 (12 remains as DMSO only) to prepare the DMSO dilution plate. 144 μL media were added to each well of a new 96-well V-bottom polypropylene plate to prepare the intermediate dilution plate. A Bravo or 96-head Integra liquid handler was used to add and mix 6 μL of test compound from the DMSO dilution plate to the intermediate dilution plate. (1:25 dilution). Cells were transferred from a flask into a 50 mL conical, vortex gently and the number of cells were counted, with a target cell number of about 1×10^6 cells per mL. The cells were diluted in culture medium in 50 mL conical or T25 flask, and the cell suspension was added to BRAVO reservoir and then use Bravo protocol to plate the appropriate number of cells shown below in 36 μl of medium per well as follows: Ba/F3-WT-EGFR 2000 cells per well of a 384 well plate; Ba/F3-LR/CS-EGFR 2000 cells per well of a 384 well plate; and Ba/F3-d19/CS-EGFR 1500 cells per well of a 384 well plate. An extra 10 mL of dead volume was utilized in each reservoir.
(§3) Using a Bravo liquid handler, 4 μl of test compound solution was added per well from the intermediate dilution plate to plated cells (1:10 dilution from the intermediate plate, final compound dilution 1:250 and final DMSO concentration per well is 0.4%). Using the 96 BRAVO Head, 25 μl were aspirated from the intermediate dilution plate and 4 μl each were dispensed into 4 wells (square pattern) in the 384-well plate. Any remaining test compound is dispensed into a secondary plate to prevent cross contamination of cells in the intermediate compound plate. After the compounds were added, the plate was shaken at 600 rpm gently for 60 see, and the plates were incubated in a tissue culture incubator, 37° C., 5% CO2, for ˜ 72 hours. After incubation, CTG 2.0 reagent was allowed to equilibrate to room temperature (˜3 hours) and cells to reach room temperature (˜10-15 minutes) and reagent was added to cells (40 μL/well) using a Bravo liquid handler. The plates were shaken to allow proper mixing (˜5 min) and let settle for 10 minutes and were read on Tecan plate reader using the appropriate luminescence method. Data from plate reader was transferred to an excel file and entered directly into Dotmatics using the protocols under EGFR Project/Cell Proliferation/named: “BaF3_EGFRwt_CP”, “BaF3_EGFR_d19/CS_CP”, “BaF3_EGFR_LR/CS_CP”. Curves were fit with a 4-parameter model and IC50s calculated by the Dotmatics software. DMSO wells were averaged to define the high control (100% growth). The average of the highest concentration of the positive control compound (afatinib) was used to define the 0% growth and used to lock the bottom of the curves. The tops of the curves were not fixed.

BaF3_EGFR d19/CS cells = test: Biological Activity Assay D: BaF3 cell proliferation assay, EGFR exon 19 deletion/C797S (BaF3 d19/CS); type: cell-based; conditions: Ba/F3 EGFR; BaF3_EGFR d19/CS cells, ~72 hours, CellTiter-Glo; read-out: BaF3 d19/CS IC50
Method: as §1, §2, §3

Ba/F3_EGFR WT cells = test: Biological Activity Assay D: BaF3 cell proliferation assay, EGFR wild-type (BaF3 WT); type: cell-based; conditions: Ba/F3 EGFR; Ba/F3_EGFR WT cells, ~72 hours, CellTiter-Glo; read-out: BaF3 WT IC50
Method: as §1, §2, §3

[1] = target: recombinant human EGFR exon 19 deletion/C797S double mutant protein (Homo sapiens (Human), UniProt P00533, C797S/DEL746-750); test: Biological Activity Assay C: biochemical assay against EGFR exon 19 deletion/C797S protein (EGFR d19/CS)
recombinant human EGFR exon 19 deletion/C797S double mutant protein, sequence (P00533 other isoform, or with tags, fused parts or gaps C797S/del 1-668/del 746-750 limits assumed): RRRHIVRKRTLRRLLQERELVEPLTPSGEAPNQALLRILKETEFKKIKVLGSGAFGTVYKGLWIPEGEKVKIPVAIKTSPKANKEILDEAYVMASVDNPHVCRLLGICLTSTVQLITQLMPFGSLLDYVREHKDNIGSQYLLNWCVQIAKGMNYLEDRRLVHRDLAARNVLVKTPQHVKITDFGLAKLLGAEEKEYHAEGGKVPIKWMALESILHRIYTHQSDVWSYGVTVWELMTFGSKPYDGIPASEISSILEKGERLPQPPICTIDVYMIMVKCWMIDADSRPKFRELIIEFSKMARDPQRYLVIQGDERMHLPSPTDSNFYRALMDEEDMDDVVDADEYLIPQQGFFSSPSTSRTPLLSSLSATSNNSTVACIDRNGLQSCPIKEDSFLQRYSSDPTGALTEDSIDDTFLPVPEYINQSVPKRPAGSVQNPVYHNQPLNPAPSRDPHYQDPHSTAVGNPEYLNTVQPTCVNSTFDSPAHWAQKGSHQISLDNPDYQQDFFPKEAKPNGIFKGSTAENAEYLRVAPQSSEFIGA
Method: In Row A of a 384-well polypropylene plate, was added 48 μL of DMSO. In wells A1 and A24, were added 12 μL of DMSO. […] To a well in Row A were added 12 μL of each 10 mM test compound stock (100% DMSO). […] The final intermediate dilution plate contained 4×16-point compound serial dilutions in assay buffer. The DMSO concentration was 10%. The intermediate compound dilution plate was transferred to the Bravo and the “5 uL dispense into ARP.pro” protocol was run. To the black low volume assay ready plates, were added 5 μL of 40 uM Phosphosens peptide sensor/4 mM ATP working solution to each well. […] To column 24, was added 10 μL of assay buffer. The final DMSO concentration was 2.5%. […] The plates were sealed with the TopSeal-A Plus plate seals. […] Set for 90 cycles with 120 second interval. […] The slope of each curve was constructed using Dotmatics in each well, and each IC50s was calculated using a 4-parameter fit model.

Compound	IC50 (BaF3_EGFR LR/CS cells) [nM]	IC50 (BaF3_EGFR d19/CS cells) [nM]	IC50 (Ba/F3_EGFR WT cells) [nM]	IC50 [1] [nM]
CC1(C)C[C@@H](Cn2cc(-c3ncnc4oc(-c5ccccc5)cc34)c(-c3ccc(F)cc3)n2)O1 (single isomer, unassigned) [Example 222]	76.8	182	1250	0.59
CC1(C)C[C@H](n2cc(-c3ncnc4oc(-c5ccccc5)cc34)c(-c3ccc(F)cc3)n2)CCO1 (single isomer, unassigned) [Example 225]	502	886	18900	4.88
CC1(C)C[C@@H](n2cc(-c3ncnc4oc(-c5ccccc5)cc34)c(-c3ccc(F)cc3)n2)CCO1 (single isomer, unassigned) [Example 226]	236	413	10200	1.86
Fc1ccc(-c2nn([C@@H]3CCCCC3(F)F)cc2-c2ncnc3oc(-c4ccccc4)cc23)cc1 (single isomer, unassigned) [Example 230]	88.5	287	2370	5.1
Fc1ccc(-c2nn([C@H]3CCCCC3(F)F)cc2-c2ncnc3oc(-c4ccccc4)cc23)cc1 (single isomer, unassigned) [Example 233]	228	414	6040	4.09
CC1(C)C[C@@H](n2cc(-c3ncnc4oc(-c5ccccc5)cc34)c(-c3ccc(F)cc3)n2)CO1 (single isomer, unassigned) [Example 237]	35	73.9	2500	0.74
CC1(C)C[C@H](n2cc(-c3ncnc4oc(-c5ccccc5)cc34)c(-c3ccc(F)cc3)n2)CO1 (single isomer, unassigned) [Example 238]	31	52.1	2070	0.62
N=[S@]1(=O)CC[C@H](n2cc(-c3ncnc4oc(-c5ccccc5)cc34)c(-c3ccc(F)cc3)n2)C1 (single isomer, unassigned) [Example 246]	10.6	26.9	876	0.06
N=[S@@]1(=O)CC[C@@H](n2cc(-c3ncnc4oc(-c5ccccc5)cc34)c(-c3ccc(F)cc3)n2)C1 (single isomer, unassigned) [Example 247]	8.8	26.9	1360	0.09
Cn1cnc(-c2cc3c(-c4cn(C5CC5(F)F)nc4-c4ccc(F)cc4)ncnc3o2)c1 (single isomer, unassigned) [Example 273]	22.9	24.8	834	0.291
Cn1cnc(-c2cc3c(-c4cn([C@H]5CC5(F)F)nc4-c4ccc(F)cc4)ncnc3o2)c1 (single isomer, unassigned) [Example 274]	16.1	23.5	721	0.213
O[C@H]1C[C@@H](n2cc(-c3ncnc4oc(-c5ccccc5)cc34)c(-c3ccc(F)cc3)n2)C1 [Example 120, (1s,3s)-3-(3-(4-Fluorophenyl)-4-(6-phenylfuro[2,3-d]pyrimidin-4-yl)-1H-pyrazol-1-yl)cyclobutan-1-ol]	8.82	17.1	633	0.12
